From ChEMBL document CHEMBL5506059, “Cyanomethylquinolones as a New Class of Potential Multitargeting Broad-Spectrum Antibacterial Agents” (J Med Chem, 2024)
Converted amounts (≈) assume the structure as drawn. The source made the active and inactive calls. The calls are words filed in the database; no cut-off is given here.

Assays:
Cell membrane [1] = assay: Induction of cell membrane permeability in methicillin-resistant Staphylococcus aureus assessed as increase in fluorescence intensity at 1 to 2 ug/ml incubated for 6 hrs by PI staining based fluorescence analysis; type: cell membranes; details: dose 1-2 µg/ml
Streptococcus pyogenes [2] = assay: Potency index, ratio of norfloxacin MIC to test compound MIC for antibacterial activity against Streptococcus pyogenes ATCC 19615 assessed as inhibition of bacterial growth incubated for 24 hrs; type: functional
Pseudomonas aeruginosa [3] = assay: Induction of morphological changes in Pseudomonas aeruginosa assessed as appearance of concaved bacterial surface at 2 ug/ml incubated for 3 hrs by SEM analysis; type: functional, organism-based; details: dose 2.0 µg/ml
Staphylococcus aureus [4] = assay: Resistance development in methicillin resistant Staphylococcus aureus assessed as increase in MIC measured after 20 days; type: functional, organism-based; details: time 20.0 day
Staphylococcus aureus [5] = assay: Induction of morphological changes in methicillin resistant Staphylococcus aureus assessed as appearance of wrinkled bacterial surface at 2 ug/ml incubated for 3 hrs by SEM analysis; type: functional, organism-based; details: dose 2.0 µg/ml
Staphylococcus aureus [6] = assay: Induction of morphological changes in methicillin resistant Staphylococcus aureus assessed as appearance of concaved bacterial surface at 2 ug/ml incubated for 3 hrs by SEM analysis; type: functional, organism-based; details: dose 2.0 µg/ml
Staphylococcus aureus [7] = assay: Antibacterial activity against Staphylococcus aureus ATCC 29213 assessed as inhibition of bacterial growth incubated for 24 hrs; type: functional
Enterococcus faecalis [8] = assay: Antibacterial activity against Enterococcus faecalis clinical isolate assessed as inhibition of bacterial growth incubated for 24 hrs; type: functional
Pseudomonas aeruginosa [9] = assay: Antibiofilm activity in Pseudomonas aeruginosa assessed as biofilm eradication measured after 24 hrs by crystal violet staining based analysis; type: functional, organism-based; details: dose 1-2 µg/ml
Pseudomonas aeruginosa [10] = assay: Antibacterial activity against Pseudomonas aeruginosa assessed as reduction in metabolic activity by measuring reduction in fluorescence intensity at 0.5 to 2 times MIC incubated for 6 hrs by alamar blue assay; type: functional, organism-based
Streptococcus pyogenes [11] = assay: Potency index, ratio of ciprofloxacin MIC to test compound MIC for antibacterial activity against Streptococcus pyogenes ATCC 19615 assessed as inhibition of bacterial growth incubated for 24 hrs; type: functional
Pseudomonas aeruginosa [12] = assay: Induction of morphological changes in Pseudomonas aeruginosa assessed as appearance of wrinkled bacterial surface at 2 ug/ml incubated for 3 hrs by SEM analysis; type: functional, organism-based; details: dose 2.0 µg/ml
Enterococcus faecalis [13] = assay: Potency index, ratio of norfloxacin MIC to test compound MIC for antibacterial activity against vancomycin-resistant Enterococcus faecalis clinical isolate p1-2007225053 assessed as inhibition of bacterial growth incubated for 24 hrs; type: functional
Staphylococcus aureus [14] = assay: Antibacterial activity against Staphylococcus aureus ATCC 6538 assessed as inhibition of bacterial growth incubated for 24 hrs; type: functional
[15] = Cytotoxicity against HUVEC cells assessed as cell viability at 25 ug/ml measured after 24 hrs by MTT assay relative to control; type: toxicity, cell-based; details: human, at 25 µg/mL, read-out: Activity
L02 = assay: Cytotoxicity against human L02 cells assessed as reduction in cell viability at 0.78 to 25 ug/ml measured after 24 hrs by MTT assay; type: toxicity, cell-based; details: l02, 24 h, dose 0.78-25 µg/ml
Erythrocyte = assay: Hemolytic activity in human Red blood cells assessed as concentration required for 5% hemolysis measured after 1.5 hrs by absorbance based assay; type: toxicity, cell-based
Pseudomonas aeruginosa [16] = assay: Resistance development in Pseudomonas aeruginosa assessed as increase in MIC measured after 20 days; type: functional, organism-based; details: time 20.0 day
Pseudomonas aeruginosa [17] = assay: Antibacterial activity against Pseudomonas aeruginosa ATCC 27853 assessed as inhibition of bacterial growth incubated for 24 hrs; type: functional
Staphylococcus aureus [18] = assay: Antibacterial activity against Staphylococcus aureus ATCC 25923 assessed as inhibition of bacterial growth incubated for 24 hrs; type: functional
Staphylococcus aureus [19] = assay: Antibacterial activity against methicillin resistant Staphylococcus aureus assessed as reduction in metabolic activity by measuring reduction in fluorescence intensity at 0.5 to 2 times MIC incubated for 6 hrs by alamar blue assay; type: functional, organism-based
Klebsiella pneumoniae = assay: Antibacterial activity against Klebsiella pneumoniae clinical isolate assessed as inhibition of bacterial growth incubated for 24 hrs; type: functional
Streptococcus pyogenes [20] = assay: Antibacterial activity against Streptococcus pyogenes ATCC 19615 assessed as inhibition of bacterial growth incubated for 24 hrs; type: functional
Pseudomonas aeruginosa [21] = assay: Potency index, ratio of clinafloxacin MIC to test compound MIC for antibacterial activity against Pseudomonas aeruginosa clinical isolate assessed as inhibition of bacterial growth incubated for 24 hrs; type: functional
Staphylococcus aureus [22] = assay: Antibacterial activity against methicillin resistant Staphylococcus aureus infected in female ICR mouse assessed as log reduction in bacterial load at 10 mg/kg pre-infected with bacteria for 24 hrs followed by compound administration on wound site every 6 hrs for 2 times and measured 36 hrs post infection; type: functional; details: time 12 hrs
Pseudomonas aeruginosa [23] = assay: Potency index, ratio of ciprofloxacin MIC to test compound MIC for antibacterial activity against Pseudomonas aeruginosa clinical isolate assessed as inhibition of bacterial growth incubated for 24 hrs; type: functional
Cell membrane [24] = assay: Induction of cell membrane depolarization in methicillin-resistant Staphylococcus aureus assessed as increase in fluorescence intensity at 1 ug/ml measured for 30 mins by DiSC35 dye based fluorescence analysis; type: cell membranes; details: dose 1.0 µg/ml
Pseudomonas aeruginosa [25] = assay: Induction of intracellular ROS generation in Pseudomonas aeruginosa assessed as increase in fluorescence intensity at 2 ug/ml incubated for 6 hrs by DCFH-DA dye based fluorescence analysis; type: functional, organism-based; details: dose 2.0 µg/ml
Staphylococcus aureus [26] = assay: Antibacterial activity against Staphylococcus aureus clinical isolate assessed as inhibition of bacterial growth incubated for 24 hrs; type: functional
Acinetobacter baumannii = assay: Antibacterial activity against Acinetobacter baumannii clinical isolate assessed as inhibition of bacterial growth incubated for 24 hrs; type: functional
Enterococcus faecalis [27] = assay: Potency index, ratio of ciprofloxacin MIC to test compound MIC for antibacterial activity against vancomycin-resistant Enterococcus faecalis clinical isolate p1-2007225053 assessed as inhibition of bacterial growth incubated for 24 hrs; type: functional
Pseudomonas aeruginosa [28] = assay: Induction of morphological changes in Pseudomonas aeruginosa assessed as appearance of blurred intracellular boundaries with disintegration of bacterial structure at 2 ug/ml incubated for 3 hrs by SEM analysis; type: functional, organism-based; details: dose 2.0 µg/ml
Streptococcus pneumoniae = assay: Antibacterial activity against Streptococcus pneumoniae ATCC 6305 assessed as inhibition of bacterial growth incubated for 24 hrs; type: functional
Enterococcus faecium = assay: Antibacterial activity against Enterococcus faecium ATCC 19434 assessed as inhibition of bacterial growth incubated for 24 hrs; type: functional
Staphylococcus aureus [29] = assay: Potency index, ratio of ciprofloxacin MIC to test compound MIC for antibacterial activity against Staphylococcus aureus clinical isolate assessed as inhibition of bacterial growth incubated for 24 hrs; type: functional
Staphylococcus aureus [30] = assay: Antibacterial activity against methicillin-resistant Staphylococcus aureus ATCC 43300 assessed as inhibition of bacterial growth incubated for 24 hrs; type: functional
Staphylococcus aureus [31] = assay: Antibacterial activity against Staphylococcus aureus ATCC 12600 assessed as inhibition of bacterial growth incubated for 24 hrs; type: functional
Cell membrane [32] = assay: Induction of cell membrane damage in Pseudomonas aeruginosa assessed as increase in nucleic acid leakage at 0 to 2 ug/ml incubated for 12 hrs by optical density based microplate reader analysis; type: cell membranes; details: dose 0-2 µg/ml
Staphylococcus aureus [33] = assay: Antibacterial activity against methicillin resistant Staphylococcus aureus clinical isolate assessed as inhibition of bacterial growth incubated for 24 hrs; type: functional
Pseudomonas aeruginosa [34] = assay: Induction of intracellular ROS generation in Pseudomonas aeruginosa assessed as increase in fluorescence intensity at 2 ug/ml incubated for 6 hrs in presence of N-acetyl-L-cysteine by DCFH-DA dye based fluorescence analysis; type: functional, organism-based; details: dose 2.0 µg/ml

Which Activity (Cell membrane [1]) does the source give for `N#CCc1cc2c(cc1F)c(=O)c(C(=O)O)cn2C1CC1` here?
Its Activity is “Active”.

What about the Ratio (Streptococcus pyogenes [2]) of the same compound?
Its Ratio is 128.

What about the Activity (Pseudomonas aeruginosa [3]) of the same compound?
The Activity was “Active”.

What about the Activity (Staphylococcus aureus [4]) of the same compound?
The Activity was “inactive”.

And the Activity (Staphylococcus aureus [5])?
The Activity was “Active”.

And the Activity (Staphylococcus aureus [6])?
Its Activity is “Active”.

And the MIC (Staphylococcus aureus [7])?
Its MIC is 1 µg/mL (≈ 3.49 µM).

And the MIC (Enterococcus faecalis [8])?
The MIC was 4 µg/mL (≈ 14 µM).

What about the Activity (Pseudomonas aeruginosa [9]) of the same compound?
The Activity was “Dose-Dependent Effect”.

What about the Activity (Pseudomonas aeruginosa [10]) of the same compound?
Its Activity is “Active”.

What about the Ratio (Streptococcus pyogenes [11]) of the same compound?
The Ratio was 64.

And the Activity (Pseudomonas aeruginosa [12])?
Its Activity is “Active”.

And the Ratio (Enterococcus faecalis [13])?
The Ratio was 8.

And the MIC (Staphylococcus aureus [14])?
The MIC was 0.5 µg/mL (≈ 1.75 µM).

And the viability at 24 h, 25 ug/ml [15]?
Its viability at 24 h, 25 ug/ml is > 90%.

What about the Activity (L02) of the same compound?
Its Activity is “Non-Toxic”.

And the HC5 (Erythrocyte)?
The HC5 was > 10000 µg/mL.

And the Activity (Pseudomonas aeruginosa [16])?
The Activity was “inactive”.

What about the MIC (Pseudomonas aeruginosa [17]) of the same compound?
Its MIC is 0.5 µg/mL (≈ 1.75 µM).

What about the MIC (Staphylococcus aureus [18]) of the same compound?
The MIC was 4 µg/mL (≈ 14 µM).

What about the Activity (Staphylococcus aureus [19]) of the same compound?
Its Activity is “Active”.

What about the MIC (Klebsiella pneumoniae) of the same compound?
The MIC was 1 µg/mL (≈ 3.49 µM).

And the MIC (Streptococcus pyogenes [20])?
Its MIC is 0.25 µg/mL (≈ 0.873 µM).

What about the Ratio (Pseudomonas aeruginosa [21]) of the same compound?
The Ratio was 2.

And the “log(activity)” value (Staphylococcus aureus [22])?
The value was ~2.5.

What about the Ratio (Pseudomonas aeruginosa [23]) of the same compound?
The Ratio was 8.

What about the Activity (Cell membrane [24]) of the same compound?
The Activity was “Active”.

What about the Activity (Pseudomonas aeruginosa [25]) of the same compound?
Its Activity is “Active”.

And the MIC (Staphylococcus aureus [26])?
Its MIC is 0.25 µg/mL (≈ 0.873 µM).

What about the MIC (Acinetobacter baumannii) of the same compound?
The MIC was 0.25 µg/mL (≈ 0.873 µM).

What about the Ratio (Enterococcus faecalis [27]) of the same compound?
Its Ratio is 2.

What about the Activity (Pseudomonas aeruginosa [28]) of the same compound?
The Activity was “Active”.

What about the MIC (Streptococcus pneumoniae) of the same compound?
The MIC was 0.5 µg/mL (≈ 1.75 µM).

And the MIC (Enterococcus faecium)?
Its MIC is 2 µg/mL (≈ 6.99 µM).

And the Ratio (Staphylococcus aureus [29])?
Its Ratio is 8.

And the MIC (Staphylococcus aureus [30])?
The MIC was 0.5 µg/mL (≈ 1.75 µM).

And the MIC (Staphylococcus aureus [31])?
The MIC was 1 µg/mL (≈ 3.49 µM).

What about the Activity (Cell membrane [32]) of the same compound?
The Activity was “Active”.

And the MIC (Staphylococcus aureus [33])?
The MIC was 0.5 µg/mL (≈ 1.75 µM).

And the Activity (Pseudomonas aeruginosa [34])?
The Activity was “inactive”.
